Assay results reported in PMC8326117 (International Journal of Biological Sciences, 2021).
“Also recorded” adds a separate entry of the source. No end group written: not given here.

Tests used:
ACE2 = ACE2 (Homo sapiens, UniProt Q9BYF1); conditions: cited from earlier work
S-protein RBD = S-protein RBD (Severe acute respiratory syndrome coronavirus 2, UniProt P0DTC2); experiment: LSPR assay, binding to S-protein RBD; design: species or system SARS-CoV-2; conditions: pH 7.4
Description: LSPR analysis. Localized Surface Plasmon Resonance (LSPR) analysis was conducted with OpenSPRTM instrument (Nicoyalife, Canada). The COOH sensor chip was firstly installed on the OpenSPRTM instrument in accordance with the standard procedure. Run the buffer at the maximum flow rate (150 μL/min) and exhaust the bubble after reaching the signal baseline. Slow down the flow rate of buffer solution (PBS, pH 7.4) to 20 µL/min, then load 200 µL EDC/NHS (20 μL /min, 4min) solution to activate COOH sensor chips. […] The injection port was rinsed with buffer solution and emptied with air. Fill with 200 µL blocking solution (20 µL/min, 4 min), wash the sample ring with buffer solution and empty it with air. Observe baseline for 5 min to ensure stability. Next, the selected peptides were diluted into a series of solutions with different concentration, which were then injected into the chip with the concentration from low to high. The kinetic parameters of the binding reactions were calculated and analyzed by using TraceDrawer software (Ridgeview Instruments AB, Sweden).

SARS-CoV-2 S-protein = assay type: binding
[1] = test system: SARS-CoV-2 Spike-pseudovirus; conditions: in vivo
[2] = test system: SARS-CoV-2 Spike-pseudovirus; conditions: in vivo; remark: listed apart in the source
[3] = test system: SARS-CoV-2 Spike-pseudovirus; conditions: in vivo; remark: listed apart in the source
[4] = mouse, in vivo

Sequence of ACE2 (Q9BYF1 18-805): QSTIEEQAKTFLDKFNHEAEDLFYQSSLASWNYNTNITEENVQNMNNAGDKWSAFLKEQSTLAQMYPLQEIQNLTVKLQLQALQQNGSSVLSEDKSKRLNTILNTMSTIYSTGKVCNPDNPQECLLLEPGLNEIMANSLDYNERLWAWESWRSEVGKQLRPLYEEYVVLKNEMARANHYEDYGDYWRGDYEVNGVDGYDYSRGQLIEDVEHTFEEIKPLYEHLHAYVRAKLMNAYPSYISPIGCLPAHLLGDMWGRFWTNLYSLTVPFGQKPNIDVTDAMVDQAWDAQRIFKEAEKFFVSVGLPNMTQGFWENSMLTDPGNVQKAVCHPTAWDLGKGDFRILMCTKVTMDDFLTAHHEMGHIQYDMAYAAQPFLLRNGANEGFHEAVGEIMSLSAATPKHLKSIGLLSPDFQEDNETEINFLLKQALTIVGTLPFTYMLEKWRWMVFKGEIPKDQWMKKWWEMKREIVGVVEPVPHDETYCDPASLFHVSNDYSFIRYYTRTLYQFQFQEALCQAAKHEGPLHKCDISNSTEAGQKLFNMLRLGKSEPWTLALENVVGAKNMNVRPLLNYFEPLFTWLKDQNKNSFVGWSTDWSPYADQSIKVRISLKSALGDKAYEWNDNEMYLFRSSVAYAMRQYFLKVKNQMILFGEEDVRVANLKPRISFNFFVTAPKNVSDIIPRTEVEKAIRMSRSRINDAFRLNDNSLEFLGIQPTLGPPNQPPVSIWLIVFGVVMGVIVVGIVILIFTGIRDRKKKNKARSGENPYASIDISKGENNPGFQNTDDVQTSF

Cc1cc(O)c2c(c1)C(=O)c1cc(O)cc(O)c1C2=O [emodin]
ACE2 blocking (ACE2): identified to block ACE2

COc1ccc2[nH]cc(CCNC(C)=O)c2c1 [melatonin]
ACE2 blocking (ACE2): identified to block ACE2

S=c1[nH]cnc2nc[nH]c12 [mercaptopurine]
ACE2 blocking (ACE2): identified to block ACE2

CN(C)CCOc1ccc(/C(=C(/CCCl)c2ccccc2)c2ccccc2)cc1 [toremifene]
ACE2 blocking (ACE2): identified to block ACE2

KKKKKKDKFNHEAEDLFY [AYn1]
koff (S-protein RBD): 0.001 s⁻¹ | kon (S-protein RBD): 10500 M⁻¹ s⁻¹ | protein-peptide interaction in pull-down (SARS-CoV-2 S-protein): no protein signal was detected in negative and blank control lanes | pseudovirus infection / luciferin luminance [1]: relatively weaker impact on pseudovirus infection; also recorded: ameliorated; also recorded: failed to prevent pseudovirus infection in vivo | pseudovirus content in lungs (119 bp S-protein band) [2]: relative weak therapeutic effect | luciferase IHC staining in lungs [3]: significantly ameliorated | cytotoxicity (HEK293T/hACE2 cells): no significant cytotoxicity | cytotoxicity (general statement) (HEK293T/hACE2 cells): no cytotoxicity | distribution in livers and kidneys [4]: not in the kidneys and livers | distribution in lungs and small intestine [4]: preferentially distributed in the lungs and intestine
